Experimental data published in patent publication US20220135580A1, “HYDROXYPH[…], METHODS AND USES THEREOF” (priority 2019, published 2022).
“Also recorded” adds a separate entry of the source.

Key:
[1] = system: differentiated 3T3-L1 spheroids; test: lipolysis: free glycerol in the medium of 3T3-L1 spheroids; type: cell-based, murine; settings: 3T3-L1 spheroids exposed over 48 h
Description: (§1) FIG. 2: Evaluation of lipid content (Nile red) and viability (calcein AM) in differentiated 3T3-L1 spheroids after exposure to compound 1 (hpa) and compound 2 (hfa) over 48 h. […] Statistical difference to the solvent control were analysed by One-Way ANOVA, followed by a Dunnett's multiple comparison post-test (***p-value<0.001, **p-value <0.01, *p-value <0.05). Quantification of free glycerol (lipolysis) on the medium where 3T3-L1 organoids were exposed to compound 1 (hpa) and compound 2 (hfa) over 48 h. […] Kolmogorov-Smirnov test was used to test normality of the data, followed by a Dunnett's multiple comparison post-test (***p-value <0.001, **p-value <0.01, *p-value <0.05).
(§2) In an embodiment, the bioactivity of hpa and hfa was confirmed in a further assay, using the murine pre-adipocyte cell line 3T3L1. […] In an embodiment, the activity in differentiated 3T3L1 spheroids was confirmed and analysis of lipolysis performed.

[2] = system: differentiated 3T3-L1 spheroids; test: viability (calcein AM) in differentiated 3T3-L1 spheroids; type: cell-based, murine; settings: for toxicity by calcein AM staining: 3T3L1 spheroids; for reduction of viability of spheroids: not significant
Description: as §1, §2

zebrafish larvae = test: general toxicity on zebrafish larvae (death, malformations); type: in vivo, Zebrafish (Danio rerio); settings: same concentration ranges as lipid reducing activity
Description: (§3) 13^2(S)-hydroxy-pheophytin a (hpa) is a known compound, and belongs to the photosystem II complex of the chloroplast. The second is a novel compound, 13^2(S)-hydroxy-pheofarnesin a (hfa), which is structurally related to hpa.

[3] = system: neutral lipids in zebrafish larvae; test: zebrafish Nile red fat metabolism assay (lipid reducing activity); type: in vivo, Zebrafish (Danio rerio); settings: for IC50 / lipid reducing activity / Nile red staining: zebrafish larvae, exposure for 48 h; for IC50: Nile red; for fluorescence intensity of Nile red: all tested concentrations (156 ng/mL to 10 μg/mL)
Description: FIG. 1.A: Representative images of the zebrafish Nile red fat metabolism assay. Nile red fluorescence signal indicates neutral lipids around the yolk sac and stomach/intestine. […] A solvent control (0.1% dimethyl sulfoxide, DMSO) and positive control group (50 μM resveratrol, REV) was included.
FIG. 1.B: Quantification of lipid-reducing activity in the zebrafish Nile Red fat metabolism assay after exposure for 48 h. Values are expressed as mean fluorescence intensity (MFI) relative to the DMSO group and are derived from 6 to 8 individual larvae per treatment group. The data are represented as box-whisker plots (5 to 95 percentiles). Asterisks highlight significant differences compared to the DMSO group (****p<0.0001; ***p<0.001; **p<0.01; *p<0.05).
Zebrafish (Danio rerio) has become an attractive model organism for biomedical research. In the study of complex metabolic disorders like obesity, the use of more complex in vivo model systems as small whole animal models can bring significant advantages. For drug discovery, zebrafish assays can be used complementary to rodent assays, with easier handling, high predictive validity and cost-efficiency while compatible with high-throughput screening. […] The zebrafish Nile red fat metabolism assay analyses the capacity of compounds to reduce neutral lipids in zebrafish larvae in vivo.
as §3
In an embodiment, chlorophyll a and chlorophyll b were tested for lipid reducing activity on the zebrafish Nile red fat metabolism assay.

[4] = system: differentiated 3T3-L1 spheroids; test: lipid content (Nile red) in differentiated 3T3-L1 spheroids; type: cell-based, murine; settings: for lipid accumulation: 48 h exposure, spheroids after 7 d differentiation; for lipid content of the spheroids: 3T3L1 cells grown and differentiated as spheroids
Description: as §1, §2

cancer cells = settings: Cheng et al., 2001; cited from earlier work

| Molecule | lipolytic activity / free glycerol content in the medium [1] | lipolytic activity / free glycerol content in the medium ([1]; listed as compound 2) | toxicity by calcein AM staining [2] | reduction in viability of spheroids ([2]; any concentration, 48 h) | general toxicity (death, malformations) (zebrafish larvae) | IC50 [3] [µM] | lipid reducing activity / Nile red staining [3] | lipid accumulation ([4]; 30 μg/mL) | lipid content of the spheroids [4] | fluorescence intensity of Nile red [3] | lipolytic activity / free glycerol content in the medium ([1]; listed as compound 1) | reduction of viability of spheroids ([2]; 15 μg/mL, 48 h) [%] | reduction of viability of spheroids ([2]; 30 μg/mL, 48 h) [%] | cytotoxicity on cancer cells (cancer cells) [µg/mL] | lipid accumulation ([4]; 7.5 μg/mL) | lipid accumulation ([4]; 15 μg/mL) |
| --- | --- | --- | --- | --- | --- | --- | --- | --- | --- | --- | --- | --- | --- | --- | --- | --- |
| 13^2-(S)-hydroxy-pheofarnesin a [hfa] | did not alter lipolytic activities | No significant alterations | No toxicity was observed | did not cause any reduction in viability | No general toxicity was observed | 15.5 ± 1.3 | show a decrease in the Nile red staining | significant reduction of lipid accumulation | reduced significantly the lipid content | – | – | – | – | – | – | – |
| C=Cc1c(C)c2cc3nc(c4c5[n-]c(cc6nc(cc1[n-]2)C(C=O)=C6CC)c(C)c5C(=O)[C@@H]4C(=O)OC)[C@@H](CCC(=O)OC/C=C(\C)CCC[C@H](C)CCC[C@H](C)CCCC(C)C)[C@@H]3C.[Mg+2] [chlorophyll b] | – | – | – | – | – | – | not present; also recorded: did not demonstrate any lipid reducing activity | – | – | did not reduce the fluorescence intensity | – | – | – | – | – | – |
| C=Cc1c(C)c2cc3nc(c4c5[n-]c(cc6nc(cc1[n-]2)C(C)=C6CC)c(C)c5C(=O)[C@@H]4C(=O)OC)[C@@H](CCC(=O)OC/C=C(\C)CCC[C@H](C)CCC[C@H](C)CCCC(C)C)[C@@H]3C.[Mg+2] [chlorophyll a] | – | – | – | – | – | – | not present; also recorded: did not demonstrate any lipid reducing activity | – | – | did not reduce the fluorescence intensity | – | – | – | – | – | – |
| 13^2-(S)-hydroxy-pheophytin a [hpa] | did not alter lipolytic activities | – | No toxicity was observed | – | No general toxicity was observed | 8.9 ± 0.4 | show a decrease in the Nile red staining | significant reduction of lipid accumulation | reduced significantly the lipid content | – | No significant alterations | 20 | 20 | 8.8 to 22 | significant reduction of lipid accumulation | significant reduction of lipid accumulation |
